Publication PMC5320487, “Intrinsic Peroxidase-like Activity of Ficin” (Scientific Reports, 2017)

Tested on: Ficin
Assay: absorbance at […] nm, steady-state kinetics, Michaelis-Menten fit
Format: biochemical
Conditions: peroxidase-like activity; 0.80 mM H2O2, 20 mM phosphate buffer pH 5.0, 35 °C; ping-pong

Cc1cc(-c2cc(C)c(N)c(C)c2)cc(C)c1N [TMB]
Km: 0.19 ± 0.012 mM
